According to ChEMBL document CHEMBL1201862, “PubChem BioAssay data set” (2004):
Values belong to the molecule of their own block, whether it stands above or below them. Activity calls are given as the source filed them.

Assays:
[1] = cells
[2] = NIH3T3 cell viability loss – ATP luminescence, mouse fibroblasts, counter-screen, dose response (AID 2010); assay type: functional, cell-based;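 also: cells exposed to compound for about 90 hours before reading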
[3] = Trypanosoma cruzi growth suppression in host cells – NIH3T3 host cells, beta-gal luminescence, confirmation (AID 2044); assay type: functional, cell-based;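 also: intracellular parasites grown in NIH/3T3 mouse fibroblasts as host cells; luminescent beta-galactosidase reporter signal from transgenic T. cruzi replicating inside host cells; inhibitors lower the luminescence signal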
[4] = target: Prothrombin (Homo sapiens, UniProt P00734); experiment: Thrombin 1536 HTS Dose Response Confirmation. [Related pubchem assays: 1046 (Thrombin 1536 HTS; hits were confirmed in this assay)]; assay type: functional
[5] = target: T1, Tyrosine-protein phosphatase non-receptor type 7 (Homo sapiens, UniProt P35236); experiment: HePTP tyrosine phosphatase activity blockers – biochemical, absorbance, leukemia target, primary screen (AID 521); assay type: functional
T1 sequence (P35236 whole entry): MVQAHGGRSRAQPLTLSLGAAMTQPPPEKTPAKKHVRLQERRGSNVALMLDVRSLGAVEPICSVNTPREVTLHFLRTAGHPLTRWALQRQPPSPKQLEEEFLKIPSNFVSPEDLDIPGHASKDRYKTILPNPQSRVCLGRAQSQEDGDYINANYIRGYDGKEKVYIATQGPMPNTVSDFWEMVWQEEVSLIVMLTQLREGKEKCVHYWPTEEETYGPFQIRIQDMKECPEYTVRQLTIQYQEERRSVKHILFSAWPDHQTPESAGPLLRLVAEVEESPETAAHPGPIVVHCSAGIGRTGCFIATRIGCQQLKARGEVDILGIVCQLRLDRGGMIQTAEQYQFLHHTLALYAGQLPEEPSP

Compound: CC(Oc1ccc(Br)cc1)C(=O)Nc1ccc(S(=O)(=O)N(C)C2CCN(C)CC2)cc1 (stereo not given)
- EC50 [1]: 73 nM (active)
- EC50 [2]: 8.64 µM (active)
- EC50 [3]: < 100 nM (active)

- IC50 [4]: 691 nM (active)
Compound: Cn1cc(C(=O)NCc2cccs2)c(=O)c2cc(S(=O)(=O)N3CCCC3)ccc21

- IC50 [5]: > 100 µM (not active)
Compound: NS(=O)(=O)c1cc2c(cc1C(F)(F)F)NCNS2(=O)=O [HYDROFLUMETHIAZIDE]
